Experimental data taken from paper PMC10683482, “Offsetting Low-Affinity Carbohydrate Binding with Covalency to Engage Sugar-Specific Proteins for Tumor-Immune Proximity Induction” (ACS Central Science, 2023).

Key:
Hek-PSMA cells = experiment: ADCC reporter (jurkat activation) assay directly in polyclonal human IgG (Figure 5C); type: cell-based; settings: 9 μM compound with 230 μM human IgG 24 h, no column step
Description: (§1) Figure 5 Functional analysis of PSMA-targeting SuFEx cARMs. A. Chemical structure of the functional GU cARM molecule used for PSMA targeting. B. Confocal (top) and fluorescent imaging (bottom) of Hek-PSMA cells treated with anti-23F only or anti-23F antibody pre-incubated with rhamnose-SO2F-cARM 14. C. Jurkat activation assay evaluation of 14 directly in polyclonal human IgG. Each cARM/ARM (9 μM) was incubated with polyclonal human IgG (230 μM) overnight and then added to pre-plated Hek-P cells (50,000 cells). To this cell solution, luciferase expressing jurkat cells were added and incubated for 24 hours. Activation of jurkat cells was determined by measuring luciferase expression with a BioGlo assay kit. D. ADCP assays using various PSMA-expressing model and bonafide cancer cell lines. Each cARM/ARM (8 μM) was incubated with anti-23F (4 μM) overnight followed by addition to target cells (150,000 cells). Next, IFN-γ activated monocytes (150,000 cells) were added and incubated for 1 hour at 37 °C. ADCP was determined via flow cytometry.
Next, the capacity of alkyl-AI-cARM 10, alkyl-ARM 11, and SO2F-cARM 14 to direct immune activation via polyclonal anti-rhamnose antibodies was evaluated using a modified ADCC reporter assay (Figure 5C). ADCC represents a major mode of antitumor NK cell immunotherapeutic function, common to many FDA-approved monoclonal antibody therapies. […]

[1] = system: PSMA-expressing target cells (Hek-PSMA, LNCaP, C4-2); experiment: ADCP assay with anti-23F and U937 monocytes; type: cell-based, human; settings: 8 μM compound with 4 μM anti-23F 24 h; 1 h, 37 °C; flow cytometry
Description: as §1
Finally, the capacity of Rha-cARMs to induce ADCP of multiple target cell lines (varying in PSMA expression) was evaluated. ADCP represents a major mode of antitumor monocyte/macrophage immunotherapeutic function, also invoked by several FDA-approved monoclonal antibody therapies. […]

For C[C@@H]1O[C@@H](OCc2cn(CCc3cn(C(=O)OCCNC(=O)CCCCCNC(=O)CCCCCNC(=O)CCCCCNC(=O)NCCCC[C@H](NC(=O)N[C@@H](CCC(=O)O)C(=O)O)C(=O)O)cn3)nn2)[C@H](O)[C@H](O)[C@H]1O [compound 10], the “jurkat (immune) activation” value (Hek-PSMA cells) was “failed to direct immune activation” and the “induction of ADCP” value [1] was “nonfunctional”.
For C[C@@H]1O[C@@H](OCc2cn(CCCNC(=O)OCCNC(=O)CCCCCNC(=O)CCCCCNC(=O)CCCCCNC(=O)NCCCC[C@H](NC(=O)N[C@@H](CCC(=O)O)C(=O)O)C(=O)O)nn2)[C@H](O)[C@H](O)[C@H]1O [compound 11], the “jurkat (immune) activation” value (Hek-PSMA cells) was “failed to direct immune activation” and the “induction of ADCP” value [1] was “failure”.
